Results published in US20030225029A1 (priority 2002, published 2003).
Structures can show the parent of a compound that is named as a salt. Where two headings read alike, the source gives them in different places.

Assays:
HIV-1 [1] = details: T-cell lines; cited from earlier work
[2] = in vivo; cited from earlier work
HIV-1 [3] = details: cited from earlier work; for Impact of monotherapy: log decrease in HIV-1 RNA: for six months to one year
HIV-1 [4] = details: PBMC; cited from earlier work
[5] = in vivo; cited from earlier work; remark: listed apart in the source
[6] = human, in vivo; cited from earlier work
[7] = biological target: deoxycytidine kinase (dCK) (Cricetulus griseus, UniProt G3I4C0); details: phosphorylation to the monophosphate; partially purified enzyme from CHO cells; cited from earlier work
HCV replicon RNA = test: HCV replicon system in Huh7 cells, Q-RT-PCR of replicon RNA; type: cell-based
cytidine deaminase = cytidine deaminase (Homo sapiens, UniProt P32320); details: intracellular cytidine deaminase; cited from earlier work
HCV = test: Antiviral activity of gemcitabine after single treatment in an HCV-infected patient; type: in vivo, Human
Description: Before the second dosage the baseline viral load was 6.49 log copies/mL. […] The HCV RNA measurement eight hours after the second dosage was 4.04 log copies/mL, indicating an approximate 2.5 log drop in eight hours.

[8] = cited from earlier work
[9] = system: host DNA and RNA polymerases; test: Reduction of cellular DNA (rDNA) or RNA (rRNA) levels in Huh7 replicon cells; type: cell-based
pancreatic cancer = details: 63 patients previously treated with 5-FU; cited from earlier work
[10] = system: locally advanced or metastatic pancreatic cancer; details: 1000 mg/m^2 by 30 min infusion once weekly; 63 patients per arm; cited from earlier work
[11] = human, in vivo; cited from earlier work; remark: listed apart in the source
[12] = in vivo; cited from earlier work; remark: listed apart in the source
[13] = system: locally advanced or metastatic NSCLC; details: 28-day cycle, cited from earlier work; for objective response rate: first-line NSCLC
friend leukemia virus = details: under conditions that allowed normal weight gain; cited from earlier work
human DNA polymerase ε = human DNA polymerase ε (Homo sapiens, UniProt Q07864); details: dCTP over dFdCTP; cited from earlier work
human DNA polymerase a = biological target: T1, human DNA polymerase a (Homo sapiens, UniProt P09884); details: dCTP over dFdCTP; cited from earlier work
T1 sequence (P09884 1-1462): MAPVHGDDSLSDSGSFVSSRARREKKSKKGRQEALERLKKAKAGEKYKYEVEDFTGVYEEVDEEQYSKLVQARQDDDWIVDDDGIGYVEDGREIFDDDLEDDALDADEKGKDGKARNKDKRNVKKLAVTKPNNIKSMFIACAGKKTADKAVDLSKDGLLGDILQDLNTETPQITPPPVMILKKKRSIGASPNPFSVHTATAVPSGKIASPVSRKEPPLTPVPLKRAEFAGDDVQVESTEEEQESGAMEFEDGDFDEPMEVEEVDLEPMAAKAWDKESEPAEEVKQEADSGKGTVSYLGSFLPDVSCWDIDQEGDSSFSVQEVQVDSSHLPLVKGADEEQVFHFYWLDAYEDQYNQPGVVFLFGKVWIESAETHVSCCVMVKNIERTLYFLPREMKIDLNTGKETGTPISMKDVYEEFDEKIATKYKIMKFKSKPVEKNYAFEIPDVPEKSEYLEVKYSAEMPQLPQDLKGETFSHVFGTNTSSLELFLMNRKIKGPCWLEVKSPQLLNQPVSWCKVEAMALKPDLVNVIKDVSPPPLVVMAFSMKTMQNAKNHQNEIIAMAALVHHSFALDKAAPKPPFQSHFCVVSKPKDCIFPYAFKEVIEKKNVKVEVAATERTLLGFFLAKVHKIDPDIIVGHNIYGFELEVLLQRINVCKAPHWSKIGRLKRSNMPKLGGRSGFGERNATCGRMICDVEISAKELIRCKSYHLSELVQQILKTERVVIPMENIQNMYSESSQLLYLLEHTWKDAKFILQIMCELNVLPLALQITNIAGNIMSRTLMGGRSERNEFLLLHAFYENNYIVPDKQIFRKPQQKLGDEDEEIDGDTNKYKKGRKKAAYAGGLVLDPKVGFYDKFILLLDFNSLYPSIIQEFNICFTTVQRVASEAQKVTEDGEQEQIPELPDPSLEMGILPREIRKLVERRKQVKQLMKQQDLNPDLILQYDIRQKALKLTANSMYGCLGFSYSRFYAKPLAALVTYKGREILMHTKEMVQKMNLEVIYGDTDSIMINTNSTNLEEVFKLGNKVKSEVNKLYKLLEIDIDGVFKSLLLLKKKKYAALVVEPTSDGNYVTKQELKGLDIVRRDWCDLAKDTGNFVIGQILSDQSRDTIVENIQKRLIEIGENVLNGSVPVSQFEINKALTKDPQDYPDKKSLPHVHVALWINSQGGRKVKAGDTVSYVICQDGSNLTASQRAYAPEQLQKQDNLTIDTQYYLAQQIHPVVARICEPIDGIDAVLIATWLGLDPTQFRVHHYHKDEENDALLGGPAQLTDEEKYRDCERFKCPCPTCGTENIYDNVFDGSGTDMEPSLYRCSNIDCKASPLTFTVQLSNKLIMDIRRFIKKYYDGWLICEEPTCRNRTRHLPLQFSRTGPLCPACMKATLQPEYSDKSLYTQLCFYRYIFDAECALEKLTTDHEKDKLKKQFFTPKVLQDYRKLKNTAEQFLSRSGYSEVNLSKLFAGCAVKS

[14] = system: stage IIIB or Stage 1V NSCLC; details: 21-day cycle, cited from earlier work

Chain of deoxycytidine kinase (dCK) (G3I4C0 entry or part of it): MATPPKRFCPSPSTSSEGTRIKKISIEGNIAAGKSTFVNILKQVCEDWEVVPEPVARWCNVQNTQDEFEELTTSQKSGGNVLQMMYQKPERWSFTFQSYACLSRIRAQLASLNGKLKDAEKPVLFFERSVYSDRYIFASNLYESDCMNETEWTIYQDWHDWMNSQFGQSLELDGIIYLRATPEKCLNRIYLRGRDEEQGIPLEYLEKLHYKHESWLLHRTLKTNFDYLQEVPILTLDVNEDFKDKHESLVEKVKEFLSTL
Chain of human DNA polymerase ε (Q07864 whole entry): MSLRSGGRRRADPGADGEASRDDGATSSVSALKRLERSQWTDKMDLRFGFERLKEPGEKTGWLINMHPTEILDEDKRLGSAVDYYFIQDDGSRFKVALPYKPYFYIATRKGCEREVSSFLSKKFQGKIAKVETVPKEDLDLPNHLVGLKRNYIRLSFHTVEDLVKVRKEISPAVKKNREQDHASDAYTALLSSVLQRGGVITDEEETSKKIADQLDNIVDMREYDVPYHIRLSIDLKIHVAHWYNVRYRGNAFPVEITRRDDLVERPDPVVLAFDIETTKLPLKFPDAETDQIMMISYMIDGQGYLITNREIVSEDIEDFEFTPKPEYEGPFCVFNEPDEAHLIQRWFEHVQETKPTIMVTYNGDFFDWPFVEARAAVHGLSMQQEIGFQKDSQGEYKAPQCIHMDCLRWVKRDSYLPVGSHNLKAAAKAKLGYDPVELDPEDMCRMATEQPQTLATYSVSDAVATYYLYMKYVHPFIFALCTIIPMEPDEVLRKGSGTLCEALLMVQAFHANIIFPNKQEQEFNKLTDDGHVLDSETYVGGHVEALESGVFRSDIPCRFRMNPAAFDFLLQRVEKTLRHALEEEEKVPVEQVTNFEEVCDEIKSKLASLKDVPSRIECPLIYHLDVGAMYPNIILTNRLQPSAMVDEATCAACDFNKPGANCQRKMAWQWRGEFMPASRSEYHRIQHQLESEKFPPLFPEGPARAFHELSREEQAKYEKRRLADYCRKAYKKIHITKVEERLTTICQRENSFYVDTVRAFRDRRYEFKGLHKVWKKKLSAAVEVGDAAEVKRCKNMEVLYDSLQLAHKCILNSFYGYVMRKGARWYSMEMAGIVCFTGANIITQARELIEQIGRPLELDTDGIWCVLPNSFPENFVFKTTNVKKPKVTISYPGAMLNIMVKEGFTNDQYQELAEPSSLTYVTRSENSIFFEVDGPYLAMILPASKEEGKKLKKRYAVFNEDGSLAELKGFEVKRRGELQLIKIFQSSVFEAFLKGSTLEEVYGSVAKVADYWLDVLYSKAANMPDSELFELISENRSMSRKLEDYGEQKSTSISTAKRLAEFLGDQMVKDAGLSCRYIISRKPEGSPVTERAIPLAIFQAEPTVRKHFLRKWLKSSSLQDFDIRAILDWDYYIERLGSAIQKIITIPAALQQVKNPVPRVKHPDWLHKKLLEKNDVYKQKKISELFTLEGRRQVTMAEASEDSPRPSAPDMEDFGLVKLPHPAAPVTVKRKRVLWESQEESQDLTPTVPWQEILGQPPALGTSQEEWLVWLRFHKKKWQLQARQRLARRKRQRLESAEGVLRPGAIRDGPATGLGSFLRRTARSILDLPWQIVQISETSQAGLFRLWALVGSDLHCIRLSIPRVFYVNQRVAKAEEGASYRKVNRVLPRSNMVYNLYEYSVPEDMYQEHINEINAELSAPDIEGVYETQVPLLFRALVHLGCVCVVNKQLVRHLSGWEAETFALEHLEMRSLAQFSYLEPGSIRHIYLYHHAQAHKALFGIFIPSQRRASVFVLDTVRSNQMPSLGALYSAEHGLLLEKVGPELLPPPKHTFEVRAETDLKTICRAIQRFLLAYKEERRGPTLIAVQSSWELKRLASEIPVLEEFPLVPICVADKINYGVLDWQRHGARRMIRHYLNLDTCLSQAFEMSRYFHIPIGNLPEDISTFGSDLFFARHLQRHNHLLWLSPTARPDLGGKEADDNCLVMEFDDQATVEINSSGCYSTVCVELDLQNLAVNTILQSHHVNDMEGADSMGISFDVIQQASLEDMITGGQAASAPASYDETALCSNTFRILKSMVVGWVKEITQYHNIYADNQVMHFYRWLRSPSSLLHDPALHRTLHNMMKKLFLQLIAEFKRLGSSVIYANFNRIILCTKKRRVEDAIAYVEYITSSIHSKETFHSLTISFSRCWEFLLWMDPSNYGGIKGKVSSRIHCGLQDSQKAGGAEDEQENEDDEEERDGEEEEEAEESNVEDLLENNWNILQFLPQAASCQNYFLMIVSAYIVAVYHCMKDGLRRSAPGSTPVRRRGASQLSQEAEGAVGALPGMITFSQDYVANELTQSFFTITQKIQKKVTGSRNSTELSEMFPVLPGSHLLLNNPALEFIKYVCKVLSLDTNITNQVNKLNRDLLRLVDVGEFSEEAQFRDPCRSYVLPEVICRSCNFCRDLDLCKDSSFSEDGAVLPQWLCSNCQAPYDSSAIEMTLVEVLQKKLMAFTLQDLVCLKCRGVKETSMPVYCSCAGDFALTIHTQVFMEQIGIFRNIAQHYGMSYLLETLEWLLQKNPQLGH
Chain of cytidine deaminase (P32320 whole entry): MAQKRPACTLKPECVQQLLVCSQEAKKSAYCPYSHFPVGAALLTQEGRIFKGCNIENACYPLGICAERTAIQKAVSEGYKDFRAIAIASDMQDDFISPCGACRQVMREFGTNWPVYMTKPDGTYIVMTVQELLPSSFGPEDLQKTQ

O=c1[nH]cnc2c1ncn2[C@H]1CC[C@@H](CO)O1 [Didanosine, 2′,3′-dideoxyinosine]
EC50 (HIV-1 [1]): 2 to 20 nM
Parent drug plasma-serum half-life [2]: 0.6 to 2.7 h
Impact of monotherapy: log decrease in HIV-1 RNA (HIV-1 [3]): ˜0.8 log decrease in HIV-1 RNA for six months to one year
EC50 (HIV-1 [4]): 10 nM
Adverse events [5]: Diarrhea, nausea, vomiting, peripheral neuropathy, pancreatitis

Nc1nc(=O)n([C@@H]2CS[C@H](CO)O2)cc1F [Emtricitabine]
EC50 (HIV-1 [1]): 9 to 500 nM
Parent drug plasma-serum half-life [2]: 1.0 to 4.0 h
Impact of monotherapy: log reduction (HIV-1 [3]; at 14 days): ˜2 log reduction at 14 days
EC50 (HIV-1 [4]): 0.7 to 10 nM
Adverse events [5]: Anemia

Nc1ccn([C@@H]2O[C@H](CO)[C@@H](O)C2(F)F)c(=O)n1 [Gemcitabine, β-D-2′,2′-difluorocytidine]
plasma protein binding [6]: negligible
Km [7]: 3.6 µM
reduction of the replicon HCV RNA (FIG. 2) (HCV replicon RNA; 4-days incubation): dose-dependant reduction
EC90 (HCV replicon RNA; Hepatitis C virus, Huh-7, 96 h, Huh7 cells, 4-days incubation, read-out: EC90 (1-log reduction of replicon RNA) (converted)): ~70 nM
EC50 (HCV replicon RNA; Hepatitis C virus, Huh-7, Huh7 cells harboring self-replicating HCV RNA, read-out: EC50, reduction of HCV RNA levels): 40 nM
Km (cytidine deaminase): 96 µM
baseline viral load (HCV; before the second dosage, day after first 1200 mg dose): 6.49 log copies/mL
HCV RNA measurement (HCV; eight hours after the second dosage (approximately 700 mg)): 4.04 log copies/mL
drop in HCV RNA (HCV; in eight hours after the second dosage): ~2.5 log
half-life ([8]; after short infusion (<70 min)): 0.533 to 1.53 h
Volume of distribution ([8]; human, in vivo): 370 L/m^2
IC50 ([9]; Homo sapiens, Huh-7): 240 nM
clinical benefit response rate (pancreatic cancer): 27%
median survival (pancreatic cancer): 3.9 months
clinical benefit response, survival, and time to disease progression compared to 5-FU [10]: statistically significant increases
ADVERSE EFFECTS [11]: Thrombocytopenia,
dose-limiting toxicity [11]: myelosuppression

NC(=O)c1ncn([C@@H]2O[C@H](CO)[C@@H](O)[C@H]2O)n1 [Ribavirin]
teratogenicity [12]: teratogenic

Cc1cn([C@H]2C=C[C@@H](CO)O2)c(=O)[nH]c1=O [Stavudine, 3′-deoxy-2′,3′-didehycrothymidine]
EC50 (HIV-1 [1]): 1 to 25000 nM
Parent drug plasma-serum half-life [2]: 1.0 to 1.6 h
Impact of monotherapy: log decrease in HIV-1 RNA (HIV-1 [3]): ˜0.8 log decrease in HIV-1 RNA for six months to one year
EC50 (HIV-1 [4]): 9 nM
Adverse events [5]: Peripheral neuropathy

Nc1ccn([C@H]2CC[C@@H](CO)O2)c(=O)n1 [Zalcitabine, 2′,3′-dideoxycytidine]
EC50 (HIV-1 [1]): 30 to 50 nM
Parent drug plasma-serum half-life [2]: 1.0 to 3.0 h
Impact of monotherapy (comparison in words) (HIV-1 [3]; in vivo): Less effective than either ddI or AZT
EC50 (HIV-1 [4]): 2 to 160 nM
Adverse events [5]: Peripheral neuropathy, mouth ulcers

Cc1cn([C@H]2CC(N=[N+]=[N-])[C@@H](CO)O2)c(=O)[nH]c1=O (stereo partly shown) [Zidovudine, 1-(3′Azido-2′-deoxyribosyl)thymine]
EC50 (HIV-1 [1]): 5 to 6 nM
Parent drug plasma-serum half-life [2]: 0.8 to 1.9 h
Impact of monotherapy: log decrease in HIV-1 RNA (HIV-1 [3]): One log decrease in HIV-1 RNA for six months to one year 1
EC50 (HIV-1 [4]): 4 to 25 nM
Adverse events [5]: Nausea, vomiting, headache, neutropenia, anemia, insomnia

N.N.[Cl][Pt][Cl] [cisplatin]
objective response rate [13]: 10%

Nc1ccn([C@@H]2O[C@H](CO)[C@@H](O)C2(F)F)c(=O)n1 [cytidine analog]
inhibition of polyerythroblastosis (friend leukemia virus): 90%
inhibition of spleen enlargement (friend leukemia virus): 90%

Nc1ccn([C@@H]2O[C@H](COP(=O)(O)OP(=O)(O)OP(=O)(O)O)[C@@H](O)C2(F)F)c(=O)n1 [dFdCTP]
preference of the polymerase for the normal nucleotide (dCTP) (human DNA polymerase ε): 20 fold
preference of the polymerase for the normal nucleotide (dCTP) (human DNA polymerase a): 20 fold

O=c1ccn([C@@H]2O[C@H](CO)[C@@H](O)C2(F)F)c(=O)[nH]1 [dFdU, 2′,2′-difluorodeoxyuridine]
dCT HCV (HCV replicon RNA; 7.0 μM): 6.39
ddct (HCV replicon RNA; 7.0 μM, HCV dCt minus rRNA dCt): 4.42
dCt rRNA ([9]; 7.0 μM): 1.96

Nc1ccn([C@H]2C[C@H](O)[C@@H](CO)O2)c(=O)n1 [deoxycytidine]
Km [7]: 1.6 µM

Nc1ccn([C@@H]2O[C@H](CO)[C@@H](O)C2(F)F)c(=O)n1 [gemcitabine HCl]
tolerance (HCV; 1200 mg in 1000 minutes associated with oxaliplatine): acceptable

Abacavir
EC50 (HIV-1 [1]): 4100 nM
Parent drug plasma-serum half-life [2]: 1.0 to 2.0 h
Impact of monotherapy: log reduction in HIV-1 RNA (HIV-1 [3]; at four weeks): Approximate 1.8 log reduction in HIV-1 RNA at four weeks
Adverse events [5]: Nausea, vomiting, headache, (hypersensi- tivity reaction)

gemcitabine plus cisplatin
median time to disease progression and objective response rates compared to etoposide plus cisplatin [14]: significantly greater
survival, difference between the two treatment arms ([14]; vs etoposide plus cisplatin): no significant difference
objective response rate [13]: 26%
Median survival time and median time to disease progression compared to cisplatin alone [13]: significantly greater
